Solubility and fold change (FC) data for three compounds are collected here from ChEMBL document CHEMBL3046079, “Synthesis, herbicidal activity, and mode of action of IR 5790” (J Agric Food Chem, 2001).

Data set [1] is described as follows: Solubility of the compound in organis solvent. It counts as physicochemical.
Data set [2] is described as follows: Aqueous solubility of the compound. It counts as physicochemical. The settings on record: water.
The target of data set [3] is T1, Putative protoporphyrinogen IX oxidase (Cucumis sativus) (UniProt C6L817).
T1 sequence (whole entry): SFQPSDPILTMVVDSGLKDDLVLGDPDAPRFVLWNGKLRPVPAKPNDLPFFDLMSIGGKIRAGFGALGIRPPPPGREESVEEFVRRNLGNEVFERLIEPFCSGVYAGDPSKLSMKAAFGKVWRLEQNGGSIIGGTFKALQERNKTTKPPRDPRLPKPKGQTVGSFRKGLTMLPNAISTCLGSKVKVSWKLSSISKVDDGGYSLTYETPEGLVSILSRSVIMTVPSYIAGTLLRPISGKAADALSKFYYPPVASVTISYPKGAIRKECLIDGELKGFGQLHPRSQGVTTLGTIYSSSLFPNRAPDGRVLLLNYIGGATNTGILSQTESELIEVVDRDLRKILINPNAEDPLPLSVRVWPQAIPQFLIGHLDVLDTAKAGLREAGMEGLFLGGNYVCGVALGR
The data set can be described thus: Inhibition of protoporphyrin oxidase in Cucumis sativus (cucumber) cotyledon disc assessed as increase in extraplastidic protoporphyrin 9 accumulation at 100 uM incubated in dim light for 2 hr by HPLC analysis relative to control.

Data set [4] has as its target T1, Putative protoporphyrinogen IX oxidase (Cucumis sativus). Nature of the data set: Inhibition of protoporphyrin oxidase in Cucumis sativus (cucumber) cotyledon disc assessed as increase in extraplastidic protoporphyrin 9 accumulation at 10 uM incubated in dim light for 2 hr by HPLC analysis relative to control.

Converted amounts (≈) assume the structure as drawn.

For `C#CCOc1cc(-n2nc(C(C)(C)C)oc2=O)c(Cl)cc1Cl` [OXADIARGYL], the results for the solubility in data set [1] and in data set [2] were above 250000 µg/mL and 0.37 µg/mL (≈ 1.08 µM), respectively.
Take `CC(C)Oc1cc(-n2nc(C(C)(C)C)oc2=O)c(Cl)cc1Cl` [OXADIAZON]: the solubility – broadly, the dissolved amount per volume that the medium holds – in data set [1] is above 250000 µg/mL; in data set [2] it was 0.7 µg/mL (≈ 2.03 µM).
Consider `COC(=O)c1cc(Oc2ccc(C(F)(F)F)cc2Cl)ccc1[N+](=O)[O-]`, for which the fold change (FC) was determined as 390 in data set [3] and 369 in data set [4].
